For 26 compounds, IC50 results are on record in patent publication US11304929B2, “Tosylacetate based compounds and derivatives thereof as PHGDH inhibitors” (priority 2017, dated 2022).

The subject of one assay is MDA-MB-468. In words: 13C3 Serine Assay MDA-MB-468 (13C3 serine levels by LC/MS/MS). The format is cell-based. The following applies: Homo sapiens.
For the next assay, the target named is PHGDH (Homo sapiens (Human), UniProt O43175). In words: 3-Phosphoglycerate Dehydrogenase (PHGDH) Fluorescence Intensity Assay, run at two NAD/3-PG ratios: PHGDH_HIGH_NAD/3-PG (250 μM NAD/500 μM 3-PG) and PHGDH_500_NAD/3-PG (500 μM NAD/500 μM 3-PG). It is filed as biochemical.
Where [1] appears, read: MDA-MB-468, read-out: IC50 (13CSERINE).
The mark [2] stands for this setting: 250 μM NAD/500 μM 3-PG, read-out: IC50 (PHGDH_HIGH_NAD/3-PG).
[3] abbreviates: 500 μM NAD/500 μM 3-PG, read-out: IC50 (PHGDH_500_NAD/3-PG).
[4] abbreviates: MDA-MB-468 cells, 13C3 serine levels by LC/MS/MS, read-out: IC50 (13CSERINE).

Read-outs that look alike come from different tables or passages of the source.

PHGDH, sequence (O43175 2-533 limits assumed): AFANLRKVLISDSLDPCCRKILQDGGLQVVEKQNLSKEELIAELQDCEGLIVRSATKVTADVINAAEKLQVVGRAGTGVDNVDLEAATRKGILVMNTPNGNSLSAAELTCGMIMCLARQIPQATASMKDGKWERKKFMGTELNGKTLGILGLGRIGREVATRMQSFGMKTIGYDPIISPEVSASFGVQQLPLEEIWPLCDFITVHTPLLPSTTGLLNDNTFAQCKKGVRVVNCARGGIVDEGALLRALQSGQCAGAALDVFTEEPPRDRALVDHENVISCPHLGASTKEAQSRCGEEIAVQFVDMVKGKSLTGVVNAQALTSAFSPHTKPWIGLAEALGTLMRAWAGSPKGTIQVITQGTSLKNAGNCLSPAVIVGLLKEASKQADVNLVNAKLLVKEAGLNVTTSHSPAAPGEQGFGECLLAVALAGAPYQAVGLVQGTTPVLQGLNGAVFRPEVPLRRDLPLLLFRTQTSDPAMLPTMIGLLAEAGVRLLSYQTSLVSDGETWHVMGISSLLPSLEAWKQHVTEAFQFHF

For the compound `Cc1cc(Cl)c2cc(C(=O)N[C@H](CO)c3ccc(S(=O)(=O)CC(=O)O)cc3)n(C)c2c1` [Example 03-002, 2-{4-[(1S)-1-[(4-chloro-1,6-dimethyl-1H-indol-2-yl)formamido]-2-hydroxyethyl]benzenesulfonyl}acetic acid], the values for the IC50 in the assay on MDA-MB-468 (setting [1]) and on PHGDH (setting [2]) were 1380 nM and 6 nM, respectively.
With `Cc1cc2c(cc(C(=O)N[C@H](C)c3ccc(S(=O)(=O)CC(=O)O)cc3)n2C)c(Cl)c1Cl` [Example 03-005, 2-{4-[(1R)-1-[(4,5-dichloro-1,6-dimethyl-1H-indol-2-yl)formamido]ethyl]benzenesulfonyl}acetic acid], the IC50 in the assay with MDA-MB-468 (setting [1]) was 1070 nM; on PHGDH (setting [2]), 4 nM; on PHGDH (setting [3]), 9 nM.
Consider `Cc1cc2c(cc(C(=O)N[C@H](CO)c3ccc(S(=O)(=O)CC(=O)O)cc3)n2C)c(Cl)c1Cl` [Example 03-006, 2-{4-[(1S)-1-[(4,5-dichloro-1,6-dimethyl-1H-indol-2-yl)formamido]-2-hydroxyethyl]benzenesulfonyl}acetic acid], for which the IC50 in the assay on MDA-MB-468 (setting [1]) was found to be 203 nM; on PHGDH (setting [2]) it was 3 nM; on PHGDH (setting [3]), 4 nM.
Consider `Cc1cc(Cl)c2cc(C(=O)N[C@H](C)c3ccc(S(=O)(=O)CC(=O)O)cc3)n(C)c2c1` [Example 03-009, 2-{4-[(1R)-1-[(4-chloro-1,6-dimethyl-1H-indol-2-yl)formamido]ethyl]benzenesulfonyl}acetic acid], for which the IC50 with MDA-MB-468 (setting [1]) was 3570 nM; on PHGDH (setting [2]) it was 8 nM.
For `Cc1nc2c(cc(C(=O)N[C@H](CO)c3ccc(S(=O)(=O)CC(=O)O)cc3)n2C)c(Cl)c1Cl` [Example 03-011, 2-{4-[(1S)-1-({4,5-dichloro-1,6-dimethyl-1H-pyrrolo[2,3-b]pyridin-2-yl}formamido)-2-hydroxyethyl]benzenesulfonyl}acetic acid], the IC50 in the assay with MDA-MB-468 (setting [4]) stood at 2000 nM; on PHGDH (setting [2]), 9 nM.
With `Cc1cc(Cl)c2cc(C(=O)N[C@H](C)c3ccc(S(=O)(=O)C(C)C(=O)OC(C)(C)C)cc3)n(C)c2c1` (stereo partly drawn) [Example 05-001, tert-butyl 2-{4-[(1R)-1-[(4-chloro-1,6-dimethyl-1H-indol-2-yl)formamido]ethyl]benzenesulfonyl}propanoate], the IC50 in the assay on MDA-MB-468 (setting [4]) stood at 891 nM; on PHGDH (setting [2]) it was 24400 nM.
For `CCOC(=O)C(C)(C)S(=O)(=O)c1ccc([C@@H](C)NC(=O)c2cc3c(Cl)cc(C)cc3n2C)cc1` [Example 05-003, ethyl 2-{4-[(1R)-1-[(4-chloro-1,6-dimethyl-1H-indol-2-yl)formamido]ethyl]benzenesulfonyl}-2-methylpropanoate], in that order: 30.2 nM and 15900 nM.
Take `Cc1cc(Cl)c2cc(C(=O)N[C@H](C)c3ccc(S(=O)(=O)C(C)C(=O)OC(C)C)cc3)n(C)c2c1` (stereo partly drawn) [Example 05-004, propan-2-yl 2-{4-[(1R)-1-[(4-chloro-1,6-dimethyl-1H-indol-2-yl)formamido]ethyl]benzenesulfonyl}propanoate]: the results for the IC50 in the assay with MDA-MB-468 (setting [4]) and on PHGDH (setting [2]) were 10.1 nM and 11800 nM, respectively.
In the case of `COCCC(C(=O)OC)S(=O)(=O)c1ccc([C@@H](C)NC(=O)c2cc3c(Cl)cc(C)cc3n2C)cc1` (stereo partly drawn) [Example 05-005, methyl 2-{4-[(1R)-1-[(4-chloro-1,6-dimethyl-1H-indol-2-yl)formamido]ethyl]benzenesulfonyl}-4-methoxybutanoate], the IC50 with MDA-MB-468 (setting [4]) was found to be 831 nM; on PHGDH (setting [2]), 652 nM.
With `COC(=O)C(C)S(=O)(=O)c1ccc([C@@H](C)NC(=O)c2cc3c(Cl)cc(C)cc3n2C)cc1` (stereo partly drawn) [Example 05-009, methyl 2-{4-[(1R)-1-[(4-chloro-1,6-dimethyl-1H-indol-2-yl)formamido]ethyl]benzenesulfonyl}propanoate], the IC50 worked out at 1.6 nM in the assay with MDA-MB-468 (setting [4]) and 1680 nM at PHGDH (setting [2]).
For `COC(=O)C1(S(=O)(=O)c2ccc([C@@H](C)NC(=O)c3cc4c(Cl)cc(C)cc4n3C)cc2)CCOCC1` [Example 05-010, methyl 4-{4-[(1R)-1-[(4-chloro-1,6-dimethyl-1H-indol-2-yl)formamido]ethyl]benzenesulfonyl}oxane-4-carboxylate], in that order: 3.7 nM and 11200 nM.
For the compound `CCOC(=O)C(C)S(=O)(=O)c1ccc([C@@H](C)NC(=O)c2cc3c(Cl)cc(C)cc3n2C)cc1` (stereo partly drawn) [Example 05-011, ethyl 2-{4-[(1R)-1-[(4-chloro-1,6-dimethyl-1H-indol-2-yl)formamido]ethyl]benzenesulfonyl}propanoate], the IC50 in the assay with MDA-MB-468 (setting [4]) was determined as 3.9 nM; on PHGDH (setting [2]), 5020 nM.
For `Cc1cc(Cl)c2cc(C(=O)N[C@H](C)c3ccc(S(=O)(=O)C(C)(C)C(=O)OC(C)C)cc3)n(C)c2c1` [Example 05-012, propan-2-yl 2-{4-[(1R)-1-[(4-chloro-1,6-dimethyl-1H-indol-2-yl)formamido]ethyl]benzenesulfonyl}-2-methylpropanoate], in that order: 906 nM and 25100 nM.
As to `CCC(C(=O)OC)S(=O)(=O)c1ccc([C@@H](C)NC(=O)c2cc3c(Cl)cc(C)cc3n2C)cc1` (stereo partly drawn) [Example 05-013, methyl 2-{4-[(1R)-1-[(4-chloro-1,6-dimethyl-1H-indol-2-yl)formamido]ethyl]benzenesulfonyl}butanoate], the IC50 in the assay with MDA-MB-468 (setting [4]) was found to be 166 nM; on PHGDH (setting [2]) it was 5530 nM.
For `COC(=O)C(C)(C)S(=O)(=O)c1ccc([C@@H](CO)NC(=O)c2cc3c(Cl)c(Cl)c(C)cc3n2C)cc1` [Example 05-017, methyl 2-{4-[(1S)-1-[(4,5-dichloro-1,6-dimethyl-1H-indol-2-yl)formamido]-2-hydroxyethyl]benzenesulfonyl}-2-methylpropanoate], the IC50 was 0.3 nM with MDA-MB-468 (setting [4]), 1230 nM at PHGDH (setting [2]) and 2960 nM at PHGDH (setting [3]).
As to `COCCOC(=O)C(C)(C)S(=O)(=O)c1ccc([C@@H](C)NC(=O)c2cc3c(Cl)c(Cl)c(C)nc3n2C)cc1` [Example 05-018, 2-methoxyethyl 2-{4-[(1R)-1-({4,5-dichloro-1,6-dimethyl-1H-pyrrolo[2,3-b]pyridin-2-yl}formamido)ethyl]benzenesulfonyl}-2-methylpropanoate], the IC50 was 142 nM with MDA-MB-468 (setting [4]) and 5330 nM at PHGDH (setting [2]).
For `COC(=O)C1(S(=O)(=O)c2ccc([C@@H](C)NC(=O)c3cc4c(Cl)cc(C)cc4n3C)cc2)CC1` [Example 05-019, methyl 1-{4-[(1R)-1-[(4-chloro-1,6-dimethyl-1H-indol-2-yl)formamido]ethyl]benzenesulfonyl}cyclopropane-1-carboxylate] the same measures were 509 nM and 5310 nM.
With `COC(=O)C1(S(=O)(=O)c2ccc([C@@H](C)NC(=O)c3cc(-c4ccc(F)cc4)nn3C)cc2)CCOCC1` [Example 06-001, methyl 4-{4-[(1R)-1-{[3-(4-fluorophenyl)-1-methyl-1H-pyrazol-5-yl]formamido}ethyl]benzenesulfonyl}oxane-4-carboxylate], the values for the IC50 in the assay with MDA-MB-468 (setting [4]) and at PHGDH (setting [2]) were 25400 nM and 7700 nM, respectively.
For `COC(=O)C(C)(C)S(=O)(=O)c1ccc([C@@H](C)NC(=O)c2cc(-c3ccc(F)cc3)nn2C)cc1` [Example 06-002, methyl 2-{4-[(1R)-1-{[3-(4-fluorophenyl)-1-methyl-1H-pyrazol-5-yl]formamido}ethyl]benzenesulfonyl}-2-methylpropanoate], the IC50 with MDA-MB-468 (setting [4]) is 1880 nM; at PHGDH (setting [2]), 14700 nM.
In the case of `Cc1cc(Cl)c2cc(C(=O)N[C@H](C)c3ccc(S(=O)(=O)C4(C(=O)O)CCOCC4)cc3)n(C)c2c1` [Example 07-002, 4-{4-[(1R)-1-[(4-chloro-1,6-dimethyl-1H-indol-2-yl)formamido]ethyl]benzenesulfonyl}oxane-4-carboxylic acid], the IC50 turned out to be 6900 nM in the assay with MDA-MB-468 (setting [4]) and 7 nM on PHGDH (setting [2]).
For `Cc1cc(Cl)c2cc(C(=O)N[C@H](C)c3ccc(S(=O)(=O)C(C)(C)C(=O)O)cc3)n(C)c2c1` [Example 07-005, 2-{4-[(1R)-1-[(4-chloro-1,6-dimethyl-1H-indol-2-yl)formamido]ethyl]benzenesulfonyl}-2-methylpropanoic acid] the same measures were 1190 nM and 12 nM.
As to `CCCC(C(=O)O)S(=O)(=O)c1ccc([C@@H](C)NC(=O)c2cc3c(Cl)cc(C)cc3n2C)cc1` (stereo partly drawn) [Example 07-012, 2-{4-[(1R)-1-[(4-chloro-1,6-dimethyl-1H-indol-2-yl)formamido]ethyl]benzenesulfonyl}pentanoic acid], the IC50 in the assay with MDA-MB-468 (setting [4]) is 2390 nM; on PHGDH (setting [2]), 6 nM; at PHGDH (setting [3]) it was 16 nM.
As for `CCOCCOCCOC(=O)CS(=O)(=O)c1ccc([C@@H](C)NC(=O)c2cc3c(Cl)cc(C)cc3n2C)cc1` [Example 09-001, 2-(2-ethoxyethoxy)ethyl 2-{4-[(1R)-1-[(4-chloro-1,6-dimethyl-1H-indol-2-yl)formamido]ethyl]benzenesulfonyl}acetate], the figures for the IC50 with MDA-MB-468 (setting [4]) and on PHGDH (setting [2]) were 53.8 nM and 289 nM, respectively.
For `CC(=O)OCCOC(=O)CS(=O)(=O)c1ccc([C@@H](C)NC(=O)c2cc3c(Cl)cc(C)cc3n2C)cc1` [Example 09-002, 2-(acetyloxy)ethyl 2-{4-[(1R)-1-[(4-chloro-1,6-dimethyl-1H-indol-2-yl)formamido]ethyl]benzenesulfonyl}acetate] the same measures were 69 nM and 230 nM.
As for `COCCOC(=O)CS(=O)(=O)c1ccc([C@@H](C)NC(=O)c2cc3c(Cl)c(Cl)c(C)nc3n2C)cc1` [Example 09-003, 2-methoxyethyl 2-{4-[(1R)-1-({4,5-dichloro-1,6-dimethyl-1H-pyrrolo[2,3-b]pyridin-2-yl}formamido)ethyl]benzenesulfonyl}acetate], the IC50 in the assay on MDA-MB-468 (setting [4]) worked out at 82.8 nM; on PHGDH (setting [2]) it was 286 nM.
Regarding `CO[C@@H](C)COC(=O)CS(=O)(=O)c1ccc([C@@H](C)NC(=O)c2cc3c(Cl)cc(C)cc3n2C)cc1` [Example 09-004, (2S)-2-methoxypropyl 2-{4-[(1R)-1-[(4-chloro-1,6-dimethyl-1H-indol-2-yl)formamido]ethyl]benzenesulfonyl}acetate], the IC50 in the assay on MDA-MB-468 (setting [4]) amounted to 78.6 nM; at PHGDH (setting [2]), 394 nM.
